Reference: patent US20130236922A1, “COPPER(I)-ION SELECTIVE FLUORESCENT PROBE, METHOD FOR PREPARING THE SAME, METHOD FOR DIAGNOSING MALIGNANT DISEASE AND DIAGNOSIS KIT USING THE PROBE” (priority 2011, published 2013)

Experiments:
[1] = Dissociation constant for the multiphoton process of the zinc(II) ion-selective probe; assay type: binding; conditions: Zn(II) ions; read-out: Dissociation constant (KdTP) for the multiphoton process
Source text: Accordingly, the compound could be used to detect Zn(II) ions in the picomolar (pM) to nanomolar (nM) range by multiphoton microscopy.

[2] = Two-photon fluorescence spectra in the presence of copper(I) ions (Fd value); assay type: physicochemical; conditions: at 750 nm, HEPES buffer, 2 μM copper(I) ions
Source text: Referring to FIG. 7, the two-photon spectrum of the compound of Chemical Formula 2-Cu^+ complex in HEPES buffer indicated an Fd value of 67 GM at 750 nm, more than 13-fold as compared to BODIPY (<5 GM 750 nm). Accordingly, it can be conjectured that a sample stained with the compound of Chemical Formula 2 gives a much brighter two-photon image than one stained with the BODIPY dye.

[3] = Reactivity for copper(I) ions compared to competing metal ions (relative fluorescence intensity); conditions: compound 2 μM
Procedure: In FIG. 5, open bars show relative fluorescence intensity of the compound of Chemical Formula 2 (2 μM) resulting from reaction with Na^+, K^+, Mg^2+ and Ca^2+ (1 mM), Hg^2+ (2 μM) and other cations (50 mM) in 20 mM HEPES buffer (pH 7.0) before adding copper(I) ions, and filled bars show relative fluorescence intensity after adding 2 μM copper(I) ions (The cations indicated as numbers below the bars are as follows: (1) Cu^+; (2) Na^+; (3) K^+; (4) Mg^2+; (5) Ca^2+; (6) Mn^2+; (7) Fe^2+, (8) Co^2+; (9) Ni^2+; (10) Cu^2+; (11) Zn^2+; (12) Hg^2+).

[4] = Solubility in HEPES buffer by the fluorescence method; assay type: physicochemical; conditions: aqueous buffer, HEPES buffer ([HEPES]=20 mM, pH 7.0)
Procedure: FIGS. 1A and 1B show normalized absorption (FIG. 1A) and fluorescence (FIG. 1B) spectra of the compound of Chemical Formula 2 in 1,4-dioxane, DMF, ethanol and HEPES buffer ([HEPES]=20 mM, pH 7.0). Light with a wavelength of 365 nm was used for excitation. Solubility of the compound of Chemical Formula 2 in HEPES buffer ([HEPES]=20 mM, pH 7.0) was measured as 4.0 μM by the fluorescence method disclosed in the literature (H. M. Kim and B. R. Cho, Acc. Chem. Res., 2009, 42, 863; M. K. Kim, C. S. Lim, J. T. Hong, J. H. Han, H. Y. Jang, H. M. Kim and B. R. Cho, Angew. Chem., Int. Ed., 2010, 49, 364; J. H. Lee, C. S. Lim, Y. S. Tian, J. H. Han and B. R. Cho, J. Am. Chem. Soc., 2010, 132, 1216; H. M. Kim and B. R. Cho, Chem. Asian J., 2011, 6, 58), which is sufficient for staining of cells.

[5] = One-photon fluorescence intensity at different pH's with and without copper(I) ions; conditions: compound 2 μM, HEPES buffer, 0 and 2 μM copper(I) ions, biologically significant pH ranges, excitation 365 nm
Source text: Light with a wavelength of 365 nm was used for excitation. […] Thus, from FIG. 5 and FIG. 6, it can be seen that the compound of Chemical Formula 2 according to the present disclosure is capable of detecting copper(I) ions with little interference by pH or other metal ion.

[6] = One-photon and two-photon fluorescence titration with free copper(I) ions; assay type: binding; conditions: for Kd: HEPES 20 mM, thiourea 100 μM, pH 7.0, 1:1 binding model
Procedure: Absorption spectra were obtained using a Hewlett-Packard 8453 diode array spectrophotometer and fluorescence spectra were obtained using an Amico-Bowman series 2 luminescence spectrometer equipped with a 1-cm standard quartz cell. Fluorescence quantum yield was determined according to the literature using Coumarin 307 as reference compound (J. N. Demas, G. A. Crosby, J. Phys. Chem. 1971, 75, 991).
FIGS. 2A and 2B show one-photon absorption (FIG. 2A) and fluorescence (FIG. 2B) spectra for the compound of Chemical Formula 2 (2 μM) in the presence of free copper(I) ions (0-360 pM). Referring to FIGS. 2A and 2B, when copper(I) ions were added to the compound of Chemical Formula 2 in HEPES buffer, the fluorescence intensity increased gradually with the concentration of the copper(I) ions, without effect on the absorption spectrum. It may be because the metal ion forms a complex with the compound of Chemical Formula 2 and blocks photoinduced electron transfer (PeT). When the concentration of free copper(I) ion was 360 pM, the fluorescence intensity increased by about 4 times. A similar behavior was also observed for two-photon fluorescence spectra (see FIG. 3).
Dissociation constants (Kd) of the compound of Chemical Formula 2 for one-photon and two-photon processes were calculated from fluorescence titration curves (see FIG. 4) (HEPES buffer was used. [HEPES]=20 mM, [thiourea]=100 μM, pH=7.0).

HeLa cells = experiment: Two-photon microscopy detection of copper(I) ions in cultured HeLa cells; assay type: cell-based; conditions: compound 2 μM, 37° C., 20 minutes
Source text: In order to investigate the applicability of the compound of Chemical Formula 2 in biological cells, copper(I) ions in cultured HeLa cells were detected by two-photon microscopy.

| Kd [1] | Fd value of the Cu+ complex [2] | solubility [4] | Kd ([6]; read-out: Dissociation constant (Kd) for the copper(I) ion, one-photon process) | Kd ([6]; read-out: Dissociation constant (Kd) for the copper(I) ion, two-photon process) | Structure (SMILES) | Interference by Hg2+ ([3]; Hg2+ 2 μM, 20 mM HEPES pH 7.0) | Interference by competing metal ions Na+, K+, Mg2+, Ca2+, Mn2+, Fe2+, Co2+, Ni2+, Cu2+, Zn2+ ([3]; 20 mM HEPES pH 7.0, before and after adding 2 μM copper(I) ions) | Dependence of reactivity on pH of reaction solutions [5] | Increase of fluorescence intensity on adding copper(I) ions ([6]; free copper(I) ion 360 pM, compound 2 μM, HEPES buffer, one-photon) | TPM image of labeled HeLa cells (HeLa cells) |
| --- | --- | --- | --- | --- | --- | --- | --- | --- | --- | --- |
| 1.1 nM |  |  |  |  | CC(=O)c1ccc2cc(N(C)CC(=O)Nc3ccc(NCCN(Cc4ccccn4)Cc4ccccn4)cc3)ccc2c1 [Preparation Example 2] |  |  |  |  |  |
|  | 67 GM | 4 µM | 0.016 ± 0.002 nM | 0.02 ± 0.003 nM | CCSCCSCCN(CCSCCSCC)c1ccc(NC(=O)CN(C)c2ccc3cc(C(C)=O)ccc3c2)cc1 [Chemical Formula 2] | only exception | not interfered | irrelevant of the pH | about 4 times | very bright TPM image |
